How the values were obtained:
Assay type in all cases: cell-based
U373 = assay: MTT cell viability assay with Chou-Talalay analysis; conditions: Homo sapiens, U373 MG, 96 h, MTT 4 days later
Procedure: (§1) FIG. 9A depicts that temozolomide (TMZ) synergizes with oncolytic Herpes vector G47Δ in MGMT-negative glioma cell lines U87 and U373. U87 or U373 cells were seeded to 96-well plates at 3000 cells per well. The next day, 1:3 serial dilution series of Temozolomide (TMZ) (EC50 200 μM), and G47Δ (EC50 MOI=0.06) were prepared. TMZ was applied first followed by G47Δ 12 hours later. MTT assay was performed to measure cell viability 4 days later.

U87 = assay: as above; conditions: Homo sapiens, U-87 MG, 96 h, MTT 4 days later
Procedure: as §1

GBM4 glioma stem cells = assay: MTS cell viability / cell killing assay with Chou-Talalay analysis; conditions: Homo sapiens, 96 h, MTS 4 days later
Procedure: (§2) FIG. 10A depicts TMZ synergy with G47delta in MGMT-negative glioma stem cells (GBM4 and GBM8). GBM4 or GBM8 glioma stem cells were seeded to 96-well plates at 5000 cells per well. […] TMZ was applied first followed by G47Δ 12 hours later. MTS assay was performed to measure cell viability 4 days later.

GBM8 glioma stem cells = assay: as above; conditions: Homo sapiens, 96 h, MTS 4 days later
Procedure: as §2

BT74 glioma stem cells = assay: MTS cell viability assay with Chou-Talalay analysis; conditions: Homo sapiens, 96 h, MTS 4 days later
Procedure: BT74 glioma stem cells were seeded to 96-well plates at 5000 cells per well. […] TMZ was applied first, with or without O6-Benzylguanine (O6-BG:80 μM), followed by G47Δ 12 hours later. MTS assay was performed to measure cell viability 4 days later.
(§3) TMZ was applied first, with or without O6-Benzylguanine (O6-BG:40 or 80 μM), followed by G47Δ 12 hours later. MTS assay was performed to measure cell viability 4 days later.

GBM13 glioma stem cells = assay: as above; conditions: Homo sapiens, 96 h, MTS 4 days later
Procedure: as §3

`Cn1nnc2c(C(N)=O)ncn2c1=O` [TMZ, temozolomide] showed an EC50 (U373) of 200 µM, an EC50 (U87) of 200 µM and an EC50 (GBM4 glioma stem cells) of 20 µM. The EC50 (GBM8 glioma stem cells) was 3 µM, the EC50 (BT74 glioma stem cells) was 1500 µM and the EC50 (GBM13 glioma stem cells) was 1500 µM.

— US8703120B2, “Use of oncolytic herpes viruses for killing cancer stem cells” (The General Hospital Corporation, priority 2008, dated 2014)
